The values that follow are results of earlier work, collected in patent US20090137457A1, “Pyrimidinedione derivatives” (CoNCERT Pharmaceuticals, Inc., priority 2007, published 2009).

The structures appear in SMILES notation.

For the series the following is noted: Phase I and II clinical trials; Christopher R et al., ADA 2007 (Abs 0495-P).

`Cn1c(=O)cc(N2CCC[C@@H](N)C2)n(Cc2ccccc2C#N)c1=O` [Alogliptin]: the “tolerability in clinical trials” value was “generally well tolerated”.
